Results as given in patent publication US11319331B2, “Probe for selective detection of hypochlorous acid (HOCl) under physiological condition, and related methods” (Council of Scientific & Industrial Research, priority 2017, dated 2022).

Experiments:
[1] = S/N=3 where stated; cited from earlier work
[2] = Protocol: (§1) Unless and otherwise mentioned, 10 mM and pH 7.2 solution of aq. PBS buffer was used for all spectroscopic studies. All reactive Oxygen species and nitrogen species solutions of 1×10^-2 M were prepared in PBS having pH 7.2 and used with appropriate dilution. All luminescence measurements were done using λEx=550 nm with an emission slit width of 2/2 nm. For all biological studies, 0.6% DMSO in DMEM media was used.
The detection limit was calculated based on the fluorescence titration.

[3] = SF-1 10 μM, 2 mM HOCl, PBS-acetonitrile (9:1, v/v), pH 7.2, 37° C.
Protocol: Accordingly, all studies are carried out at physiological relevant pH […].
as §1

RAW 264.7 cells = assay: MTT assay, in vitro cytotoxicity / cell viability; settings: read-out: IC50 (MTT cell viability), treated 24 hours

Row | Compound | detection limit for HOCl/HClO (literature) [1] | detection limit for HOCl ([2]; aq. PBS buffer-acetonitrile (9:1, v/v), 3 s method) | Detection Limit for HOCl (DL=K*Sb1/S, K=3) ([2]; slope 2.50×109, Sb1 3.59) | enhancement of luminescence intensity with increasing dose of HOCl ([2]; λEm Max 580 nm, λExt 540 nm) | time to completion of reaction with HOCl [3] | IC50 (RAW 264.7 cells)
1 | CC1=CC(C)=[N+]2C1=C(CCc1[nH]c(C)cc1C)c1c(C)cc(C)n1[B-]2(F)F [BClO] | 0.56 nM |  |  |  |  | 
2 | E)-4-(2-(5,5-difluoro-1,7,9-trimethyl-10-phenyl-5H-5λ^4,6λ^4-dipyrrolo[1,2-c:2′,1′-f][1,3,2]diazaborinin-3-yl)vinyl)benzene-1,2-diol [SF-1] |  | 4.3 nM | 4.3 nM | 20 fold | ≤ 15 min | > 150 µM
